The source of these data is BindingDB's records for patent US20240316020 (Icagen, 2024).

Molecules are shown by their SMILES.

The test has as its target Potassium voltage-gated channel subfamily KQT member 2 (Homo sapiens, UniProt O43526). The test can be described thus: SyncroPatch 384 (Nanion) High Throughput Electrophysiology. The protocol:
Human Kv7.2, Kv7.4 or Kv7.5/7.3 channels were evaluated using a voltage protocol in which cells were voltage-clamped at a holding potential of -60 mV. Potassium currents were continuously activated with a series of three voltage steps to -30 mV for 3 seconds, 40 mV for 1 second and -90 mV for 4 seconds with 12 seconds between successive voltage sweeps. Potassium currents were measured from the -90 mV repolarizing step. Baseline current was assessed for 3.5 minutes prior to the addition of 5.6 uM zinc pyrithione (1 uM for Kv7.4). Kv7.2, Kv7.4 or Kv7.5/7.3 current in the presence of zinc pyrithione was acquired over five minutes to allow channels to reach steady state activity prior to addition of test agents. Channel activity was monitored for three minutes preceding the addition of 30 uM ML-213 (3 minutes) to achieve maximum activation.

Chain of Potassium voltage-gated channel subfamily KQT member 2 (O43526 whole entry): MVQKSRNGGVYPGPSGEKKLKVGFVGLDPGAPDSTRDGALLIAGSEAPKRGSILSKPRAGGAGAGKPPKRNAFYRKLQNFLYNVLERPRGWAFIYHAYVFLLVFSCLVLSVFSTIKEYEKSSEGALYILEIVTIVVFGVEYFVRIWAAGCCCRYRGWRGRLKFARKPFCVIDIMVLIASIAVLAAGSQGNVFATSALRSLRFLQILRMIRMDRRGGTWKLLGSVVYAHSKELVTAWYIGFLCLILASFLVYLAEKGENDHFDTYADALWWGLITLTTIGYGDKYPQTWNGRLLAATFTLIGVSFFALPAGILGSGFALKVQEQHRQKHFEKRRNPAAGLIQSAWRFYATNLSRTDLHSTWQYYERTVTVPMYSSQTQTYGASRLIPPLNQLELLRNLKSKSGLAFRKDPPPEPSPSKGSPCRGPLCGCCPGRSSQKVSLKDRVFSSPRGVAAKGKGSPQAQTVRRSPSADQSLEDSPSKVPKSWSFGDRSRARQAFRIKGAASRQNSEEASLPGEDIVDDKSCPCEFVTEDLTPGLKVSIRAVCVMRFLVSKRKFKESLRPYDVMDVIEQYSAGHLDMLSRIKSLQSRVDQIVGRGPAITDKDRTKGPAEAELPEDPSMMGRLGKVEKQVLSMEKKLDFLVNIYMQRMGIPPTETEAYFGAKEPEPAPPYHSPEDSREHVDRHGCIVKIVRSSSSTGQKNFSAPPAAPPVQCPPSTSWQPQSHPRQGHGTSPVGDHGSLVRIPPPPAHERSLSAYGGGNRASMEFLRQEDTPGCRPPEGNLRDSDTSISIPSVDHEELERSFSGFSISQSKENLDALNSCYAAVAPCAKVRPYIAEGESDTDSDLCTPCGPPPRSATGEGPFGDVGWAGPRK

Regarding `O=C(NCc1ccnc(-n2cccn2)c1)NC1COC2(CCCC2)C1` (stereo unspecified) [US20240316020, Example 1], it took 3.63 µM to reach a half-maximal effect (EC50).
